This passage reports EC50 and CC50 results from patent US9890133B2 (priority 2011, dated 2018).

The subject of one data set is Poliovirus 3. As to the kind of experiment: microbe, parasite or virus in culture. The following applies: Enterovirus C, read-out: Poliovirus3 EC50. It counts as cell-based.
A further data set can be described thus: in vitro. The following applies: human.

Molecules are shown by their SMILES. In brackets after ≈: the same amount, converted by molar mass.

With `CCCC(=O)NC12C(=O)c3c(N)cccc3C1(O)Oc1cc(C(C)C)ccc12` (stereo not shown) [Example 144, N-(1-Amino-4b-hydroxy-7-isopropyl-10-oxo-9b,10-dihydro-4bH-indeno[1,2-b]benzofuran-9b-yl) butyramide], the EC50 in the data set on Poliovirus 3 is < 0.01 mg/L. The CC50 in “in vitro” turned out to be 21.7 mg/L (≈ 57.1 µM); in “in vitro” (Picorana CC50), 35.5 mg/L (≈ 93.3 µM). With `CC(C)c1ccc2c(c1)OC1(O)c3cccc(N)c3C(=O)C21NC(=O)c1nc2cc(F)ccc2[nH]1` (stereo not shown) [Example 291, N-(1-Amino-4b-hydroxy-7-isopropyl-10-oxo-9b,10-dihydro-4bH-indeno[1,2-b]benzofuran-9b-yl)-5-fluoro-1H-benzo[d]imidazole-2-carboxamide], in the data set with Poliovirus 3, the EC50 came to 0.036 mg/L (≈ 0.0762 µM). Further, the CC50 is 4.51 mg/L (≈ 9.55 µM) in “in vitro” and 4.43 mg/L (≈ 9.38 µM) in the data set “in vitro” (Picorana CC50). The corresponding values for `CC(C)c1ccc2c(c1)OC1(O)c3cccc(N)c3C(=O)C21NC(=O)c1cccnc1` (stereo not shown) [Example 198, N-(1-Amino-4b-hydroxy-7-isopropyl-10-oxo-9b,10-dihydro-4bH-indeno[1,2-b]benzofuran-9b-yl)nicotinamide] are < 0.01 mg/L, 27.9 mg/L (≈ 67.3 µM) and > 50 mg/L. `CC(C)c1ccc2c(c1)OC1(O)c3cccc(N)c3C(=O)C21NC(=O)c1ccc(C#N)cc1` (stereo not shown) [Example 170, N-(1-Amino-4b-hydroxy-7-isopropyl-10-oxo-9b,10-dihydro-4bH-indeno[1,2-b]benzofuran-9b-yl)-4-cyanobenzamide]: in the data set on Poliovirus 3, the concentration for a half-maximal effect (EC50) was < 0.01 mg/L. In addition, the CC50 in the data set “in vitro” is > 10 mg/L. As to `CC(C)c1ccc2c(c1)OC1(O)c3cccc(N)c3C(=O)C21NC(=O)c1cc2ccccc2o1` (stereo not shown) [Example 204, N-(1-Amino-4b-hydroxy-7-isopropyl-10-oxo-9b,10-dihydro-4bH-benzo[d]indeno[1,2-b]furan-9b-yl)benzofurane-2-carboxamide], in the data set with Poliovirus 3, the EC50 worked out at 0.011 mg/L (≈ 0.0242 µM). Moreover, the CC50 in “in vitro” is > 10 mg/L; in the data set “in vitro” (Picorana CC50) it was > 4.51 mg/L.

Consider `Cc1cc2c(cc1C)C1(NC(=O)c3cccnc3)C(=O)c3c(N)cccc3C1(O)O2` (stereo not shown) [Example 260, N-(1-Amino-4b-hydroxy-7,8-dimethyl-10-oxo-9b,10-dihydro-4bH-indeno[1,2-b]benzofuran-9b-yl)nicotinamide], for which, in the data set on Poliovirus 3, the EC50 was found to be 0.04 mg/L (≈ 0.0996 µM). In addition, the CC50 in the data set “in vitro” is > 10 mg/L. Consider `CC(C)c1ccc2c(c1)OC1(O)c3cccc(N)c3C(=O)C21NC(=O)c1cnc2ccccc2n1` (stereo not shown) [Example 275, N-(1-Amino-4b-hydroxy-7-isopropyl-10-oxo-9b,10-dihydro-4bH-indeno[1,2-b]benzofuran-9b-yl)quinoxaline-2-carboxamide], for which the EC50 in the data set with Poliovirus 3 was 0.035 mg/L (≈ 0.075 µM). The results for the CC50 in the data set “in vitro” and in the data set “in vitro” (Picorana CC50) were 4.55 mg/L (≈ 9.75 µM) and 4.78 mg/L (≈ 10.2 µM), respectively.

Take `CC(C)c1ccc2c(c1)OC1(O)c3cccc(N)c3C(=O)C21NC(=O)c1ccncc1Cl` (stereo not shown) [Example 251, N-(1-Amino-4b-hydroxy-7-isopropyl-10-oxo-9b,10-dihydro-4bH-indeno[1,2-b]benzofuran-9b-yl)-3-chloroisonicotinamide]: the concentration giving a half-maximal response (EC50) with Poliovirus 3 is < 0.01 mg/L. Also, the CC50 in “in vitro” is > 10 mg/L.

For the molecule `CC(C)c1ccc2c(c1)OC1(O)c3cccc(N)c3C(=O)C21NC(=O)c1cnc2ccccc2c1` (stereo not shown) [Example 214, N-(1-Amino-4b-hydroxy-7-isopropyl-10-oxo-9b,10-dihydro-4bH-indeno[1,2-b]benzofuran-9b-yl)quinoline-3-carboxamide], the concentration giving a half-maximal response (EC50) in the data set with Poliovirus 3 was < 0.01 mg/L. Besides, the CC50 in “in vitro” is > 10 mg/L. Turning to `Cc1cc(C)cc(C(=O)NC23C(=O)c4c(N)cccc4C2(O)Oc2cc(C(C)C)ccc23)c1` (stereo not shown) [Example 191, N-(1-Amino-4b-hydroxy-7-isopropyl-10-oxo-9b,10-dihydro-4bH-indeno[1,2-b]benzofuran-9b-yl)-3,5-dimethylbenzamide], in the data set with Poliovirus 3, the EC50 is < 0.01 mg/L. Also, the CC50 in the data set “in vitro” is > 10 mg/L; in the data set “in vitro” (Picorana CC50), 4.12 mg/L (≈ 9.31 µM).

Take `CC(=O)Nc1ccc([N+](=O)[O-])c2c1C(=O)C1(NC(C)=O)c3ccc(C(C)C)cc3OC21OC(C)=O` (stereo not shown) [Example 110, Acetic acid 1,9b-bis-acetylamino-7-isopropyl-4-nitro-10-oxo-9b,10-dihydro-5-oxa-indeno[2,1-a]inden-4b-yl ester]: in “in vitro” (Picorana CC50), the CC50 was 14.4 mg/L (≈ 29.9 µM). Turning to `CC(C)C(=O)NC12C(=O)c3c(N)cccc3C1(O)Oc1cc(C(C)C)ccc12` (stereo not shown) [Example 77, N-(1-Amino-4b-hydroxy-7-isopropyl-10-oxo-4b,10-dihydro-5-oxa-indeno[2,1-a]inden-9b-yl)-isobutylamide], the values for the CC50 in “in vitro” and in “in vitro” (Picorana CC50) were 53.9 mg/L (≈ 142 µM) and > 50 mg/L, respectively. In the data set “in vitro” (Picorana CC50), `CC(C)c1ccc2c(c1)OC1(O)c3ccccc3C(=O)C21N=C=O` (stereo not shown) [Example 69, 4b-Hydroxy-9b-isocyanato-7-isopropyl-4b,9b-dihydro-5-oxa-indeno[2,1-a]-inden-10-one] registered a CC50 of 70 mg/L (≈ 218 µM). For `CCCCNC(=O)NC12C(=O)c3c(N)cccc3C1(O)Oc1cc(C(C)C)ccc12` (stereo not shown) [Example 163, 1-(1-Amino-4b-hydroxy-7-isopropyl-10-oxo-9b,10-dihydro-4bH-indeno[1,2-b]benzofuran-9b-yl)-3-butylurea], the CC50 in the data set “in vitro” was > 10 mg/L. On to `CC(C)c1ccc2c(c1)OC1(O)c3cccc(N4CCOCC4)c3C(=O)C21O` (stereo not shown) [Example 142, 4b,9b-Dihydroxy-7-isopropyl-1-morpholinyl-4bH-benzo[d]indeno[1,2-b]furan-10(9bH)-one], for which the CC50 in the data set “in vitro” (Picorana CC50) came to 18.7 mg/L (≈ 49 µM). Same read-out and setting: then `CCC(=O)N1c2cc(C)c(C)cc2C2(O)C(=O)c3ccccc3C12O` (stereo not shown) [Example 105, 4b,9b-Dihydroxy-7,8-dimethyl-5-propionyl-4b,5-dihydroindeno[1,2-b]indol-10(9bH)-one], with > 50 mg/L. As to `CC(C)c1ccc2c(c1)OC1(O)c3ccccc3C(=O)C21NC(=O)c1cnnc2ccccc12` (stereo not shown) [Example 239, N-(4b-hydroxy-7-isopropyl-10-oxo-9b,10-dihydro-4bH-benzo[d]indeno[1,2-b]furan-9b-yl)cinnoline-4-carboxamide], the CC50 in the data set “in vitro” is > 10 mg/L; in “in vitro” (Picorana CC50), > 50 mg/L. With `CNC(=O)N[C@@]12C(=O)c3ccccc3[C@]1(O)Oc1cc(C(C)C)ccc12` [Example 101, 1-((4bS,9bS)-4b-Hydroxy-7-isopropyl-10-oxo-9b,10-dihydro-4bH-indeno[1,2-b]benzofuran-9b-yl)-3-methylurea], the CC50 in the data set “in vitro” (Picorana CC50) was > 50 mg/L. `CC(C)c1ccc2c(c1)OC1(O)c3ccccc3C(=O)C21NC(=O)c1cc2ccccc2oc1=O` (stereo not shown) [Example 225, N-(4b-hydroxy-7-isopropyl-10-oxo-9b,10-dihydro-4bH-benzo[d]indeno[1,2-b]furan-9b-yl)-2-oxo-2H-chromene-3-carboxamide]: the CC50 in the data set “in vitro” is > 10 mg/L; in the data set “in vitro” (Picorana CC50) it was 22.9 mg/L (≈ 48.9 µM).

`CC(C)c1ccc2c(c1)OC1(OCc3ccccc3)c3ccccc3C(=O)C21O` (stereo not shown) [Example 120, 4b-(Benzyloxy)-9b-hydroxy-7-isopropyl-4bH-indeno[1,2-b]benzofuran-10(9bH)-one] displayed a CC50 in the data set “in vitro” (Picorana CC50) of 8.16 mg/L (≈ 21.1 µM). Same read-out and setting: then `CC(=O)NC12C(=O)c3ccccc3C1(OC(=O)Oc1ccccc1)Oc1cc(C(C)C)ccc12` (stereo not shown) [Example 121, Carbonic acid 9b-acetylamino-7-isopropyl-10-oxo-9b,10-dihydro-5-oxa-indeno[2,1-a]inden-4b-yl ester phenyl ester], with > 50 mg/L.

A word on the EC50: it is the concentration giving half of the maximal effect.
